Results taken from ChEMBL document CHEMBL1136901, “Crown-capped imidacloprid: a novel design and insecticidal activity” (Bioorg Med Chem Lett, 2009).

Legend:
Musca domestica [1] = experiment: Insecticidal activity against Musca domestica Takatsuki assessed as mortality injected into thorax measured after 24 hrs; type: functional
Musca domestica [2] = experiment: Insecticidal activity against Musca domestica Takatsuki in presence of metabolic inhibitor propyl 2-propynyl phenylphosphate; type: functional
Musca domestica [3] = experiment: Insecticidal activity against Musca domestica Takatsuki assessed as mortality at 15 ug applied topically; type: functional
[4] = Octanol-water partition coefficient, log P of the compound; type: physicochemical
Musca domestica [5] = experiment: Toxicity against Musca domestica Takatsuki assessed as neurological side effects at 1100 ng; type: functional, organism-based

Compound: O=[N+]([O-])/N=C1\N(Cc2ccc(Cl)nc2)CCN1Cc1ccc2c(c1)OCCOCCOCCOCCOCCO2
- LD50 (Musca domestica [1]): 17 ng
- Activity (Musca domestica [2]): 4.3 ng
- Activity (Musca domestica [3]): 38%
- logP [4]: 0.28

Compound: c1ccc2c(c1)OCCOCCOCCOCCOCCO2
- Activity (Musca domestica [5]): Not toxic

Compound: O=[N+]([O-])/N=C1\N(Cc2ccc(Cl)nc2)CCN1Cc1ccc2c(c1)OCCOCCOCCOCCO2
- LD50 (Musca domestica [1]): 25 ng
- Activity (Musca domestica [2]): 4.8 ng
- Activity (Musca domestica [3]): 44%
- logP [4]: 0.15

Compound: c1ccc2c(c1)OCCOCCOCCOCCO2
- Activity (Musca domestica [5]): Not toxic

Compound: O=[N+]([O-])/N=C1\NCCN1Cc1ccc(Cl)nc1 [IMIDACLOPRID]
- LD50 (Musca domestica [1]): 84 ng
